Results taken from patent US20030109418A1, “Methods for identifying compounds for inhibition of neoplastic lesions, and pharmaceutical compositions containing such compounds” (priority 1999, published 2003).

Legend:
[1] = target: T1, purified cyclooxygenase (Type 1, COX-I) from ram seminal vesicles (Ovis aries, UniProt P05979); experiment: COX inhibition assay, purified cyclooxygenase; type: biochemical
T1 construct: using purified cyclooxygenase from ram seminal vesicles as described previously; tissue Cayman Chemical, Ann Arbor, Mich; (named in the general protocol only); host or cells: ram seminal vesicles
T1 sequence (P05979 25-600): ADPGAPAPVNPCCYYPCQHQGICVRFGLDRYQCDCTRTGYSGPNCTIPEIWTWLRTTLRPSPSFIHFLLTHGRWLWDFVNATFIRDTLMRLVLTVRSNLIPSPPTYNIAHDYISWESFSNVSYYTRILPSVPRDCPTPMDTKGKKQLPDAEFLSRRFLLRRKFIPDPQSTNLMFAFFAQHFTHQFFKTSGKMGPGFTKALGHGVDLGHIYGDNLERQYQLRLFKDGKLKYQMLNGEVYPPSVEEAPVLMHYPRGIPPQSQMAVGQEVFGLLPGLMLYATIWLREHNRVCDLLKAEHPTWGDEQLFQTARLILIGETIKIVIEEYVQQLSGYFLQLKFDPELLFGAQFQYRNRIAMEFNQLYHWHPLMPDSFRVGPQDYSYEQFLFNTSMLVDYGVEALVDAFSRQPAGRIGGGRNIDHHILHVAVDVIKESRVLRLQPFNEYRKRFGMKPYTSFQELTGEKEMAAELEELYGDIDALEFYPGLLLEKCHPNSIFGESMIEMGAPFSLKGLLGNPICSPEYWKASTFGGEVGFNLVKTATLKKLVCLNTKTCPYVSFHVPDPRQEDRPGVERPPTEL

[2] = test system: Bronchial Epithelial Cells; experiment: Growth inhibition, SRB assay, bronchial epithelial cells; type: cell-based
Description: (§1) A compound's ability to inhibit tumor cell growth can be measured using the HT-29 human colon carcinoma cell line obtained from ATCC. HT-29 cells have previously been characterized as a relevant colon tumor cell culture model (Fogh, J., and Trempe, G. In: Human Tumor Cells in Vitro, J. Fogh (eds.), Plenum Press, New York, pp. 115-159, 1975). HT-29 cells are maintained in RPMI media supplemented with 5% fetal bovine calf serum (Gemini Bioproducts, Inc., Carlsbad, Calif.) and 2 mm glutamine, and 1% antibiotic-antimycotic in a humidified atmosphere of 95% air and 5% CO2 at 37° C. Briefly, HT-29 cells are plated at a density of 500 cells/well in 96 well microtiter plates and incubated for 24 hours at 37° C. prior to the addition of compound. […] After six days in culture, the cells are fixed by the addition of cold trichloroacetic acid to a final concentration of 10% and protein levels are measured using the sulforhodamine B (SRB) colorimetric protein stain assay as previously described by Skehan, P., Storeng, R., Scudiero, D., Monks, A., McMahon, J., Vistica, D., Warren, J. T., Bokesch, H., Kenney, S., and Boyd, M. R., “New Colorimetric Assay For Anticancer-Drug Screening,” J. Natl. Cancer Inst. […]
(§2) To show the effectiveness of this screening method on various forms of neoplasia, compounds were tested on numerous cell lines. […] The IC50 values were determined by the SRB assay. […]

[3] = target: T2, cGMP binding sites of the GST-cGB-PDE5 protein (Homo sapiens, UniProt O76074); experiment: cGMP binding assay with GST-cGB-PDE5 fusion protein; conditions: 3H-cGMP 2 μM
T2 construct: made in house; host or cells: E. coli BL21 (DE3)

[4] = test system: premalignant lesions in mouse mammary gland organ culture; experiment: Mammary gland organ culture model; type: cell-based; for mammary gland organ culture: key: −: Not active; +: Slightly active; ++: Moderately active; +++: Strongly active; ++++: Highly active
Description: Test compounds identified by the above methods can be tested for antineoplastic activity by their ability to inhibit the incidence of pre-neoplastic lesions in a mammary gland organ culture system. This mouse mammary gland organ culture technique has been successfully used by other investigators to study the effects of known antineoplastic agents such as certain NSAIDs, retinoids, tamoxifen, selenium, and certain natural products, and is useful for validation of the screening method of the present invention.
For example, female BALB/c mice can be treated with a combination of estradiol and progesterone daily, in order to prime the glands to be responsive to hormones in vitro. The animals are sacrificed, and thoracic mammary glands are excised aseptically and incubated for ten days in growth media supplemented with insulin, prolactin, hydrocortisone, and aldosterone. DMBA (7,12-dimethylbenz(a)anthracene) is added to medium to induce the formation of premalignant lesions. Fully developed glands are then deprived of prolactin, hydrocortisone, and aldosterone, resulting in the regression of the glands but not the pre-malignant lesions.
The test compound is dissolved in DMSO and added to the culture media for the duration of the culture period. At the end of the culture period, the glands are fixed in 10% formalin, stained with alum carmine, and mounted on glass slides. The incidence of forming mammary lesions is the ratio of the glands with mammary lesions to […]. The incidence of mammary lesions in test compound treated glands is compared with that of the untreated glands.
The extent of the area occupied by the mammary lesions can be quantitated by projecting an image of the gland onto a digitation pad. The area covered by the gland is traced on the pad and considered as 100% of the area. The space covered by each of the non-regressed structures is also outlined on the digitization pad and quantitated by the computer.
Mammary gland organ culture experiment were performed as previously described (Mehta and Moon, Cancer Research, 46: 5832-5835, 1986). […] The data support the hypothesis that cyclooxygenase inhibition is not necessary for the anti-neoplastic properties of desired compounds.

HCT116, Colon = experiment: Growth inhibition, SRB assay, HCT116; type: cell-based
Description: as §1, §2

[5] = target: T3, PDE peak A (PDE5) from SW480 cells (Homo sapiens, UniProt O76074); experiment: cGMP hydrolysis inhibition, PDE peak A from SW480; type: biochemical; conditions: cGMP hydrolysis, 0.25 μM 3H-cGMP
T3 construct: endogenous in cells; host or cells: SW480 colon cancer cells, DEAE-Trisacryl M fraction

[6] = test system: PDE4 purified from human colon HT-29 cultured tumor cells; experiment: PDE4 inhibition assay; type: biochemical; conditions: HT-29 cell enzyme
UACC375, Melanoma = experiment: Growth inhibition, SRB assay, UACC375; type: cell-based
Description: as §1, §2

[7] = test system: cGMP PDE purified from human colon HT-29 cultured tumor cells; experiment: cGMP PDE inhibition assay; type: biochemical
A-427, Lung = experiment: Growth inhibition, SRB assay, A-427; type: cell-based
Description: as §1, §2

[8] = test system: HT-29 colon adenocarcinoma cells; experiment: Apoptosis by DNA fragmentation assay in HT-29; type: cell-based, human; conditions: qualitative activity profile; note: key: −: Not active; +: Slightly active; ++: Moderately active; +++: Strongly active; ++++: Highly active
[9] = test system: cGMP and cAMP levels in HT-29 cells; experiment: Cyclic nucleotide levels in cultured cells by radioimmunoassay; type: cell-based, human; conditions: HT-29 cells treated 30 minutes

Question: With “5-fluoro-2-methyl-1-(p-methylsulfinylbenzylidene)-3-indenylacetic acid [Sulindac sulfide]” as the substance, how does the “Cyclooxygenase inhibitory activity, % Inhibition at 100 μM” value ([1]; 100 μM) read?
Answer: 97%

Question: What about the “COX Inhibition” value ([1]; qualitative activity profile) of the same substance?
Answer: ++++

Question: And the IC50 [2]?
Answer: 30 µM

Question: And the “competition with cGMP in binding of GST-cGB-PDE5” value [3]?
Answer: do not bind to the cGMP binding sites of PDE5

Question: What about the “inhibition of the formation of premalignant lesions” value ([4]; mammary gland organ culture) of the same substance?
Answer: inactive

Question: And the “Mammary Gland Organ Culture” value ([4]; qualitative activity profile)?
Answer: −

Question: And the IC50 (HCT116, Colon)?
Answer: 45 µM

Question: And the IC50 [5]?
Answer: 50 µM

Question: And the IC50 [6]?
Answer: 41 µM

Question: And the IC50 (UACC375, Melanoma)?
Answer: 50 µM

Question: And the “cGMP PDE inhibitory activity, % Inhibition at 10 μM” value ([7]; 10 μM)?
Answer: 97%

Question: What about the “PDE Inhibition” value ([7]; qualitative activity profile) of the same substance?
Answer: +++

Question: What about the IC50 ([7]; read-out: IC50 for inhibition of cGMP PDE, HT-29 cell enzyme) of the same substance?
Answer: 17 µM

Question: And the IC50 (A-427, Lung)?
Answer: 90 µM

Question: And the Apoptosis [8]?
Answer: +++

Question: And the “effect on cAMP levels” value [9]?
Answer: unaffected

Question: What about the “increase of cGMP levels” value [9] of the same substance?
Answer: greater than 50%

Question: And the EC50 ([9]; read-out: EC50 for increase of cGMP)?
Answer: 7.3 µM
